CO[C@H]1C[C@@H]2CC[C@@H](C)[C@@](O)(O2)C(=O)C(=O)N2CCCC[C@H]2C(=O)O[C@H]([C@H](C)C[C@@H]2CC[C@@H](O)[C@H](OC)C2)CC(=O)[C@H](C)/C=C(\C)[C@@H](O)[C@@H](OC)C(=O)[C@H](C)C[C@H](C)/C=C/C=C/C=C/1C
solubility (mole fraction)
Settings | in acetone | in chloroform | in dichloromethane | in ethanol | in methanol
295 K | 0.00316 | 0.00272 | 0.0019 | 0.00137 | 0.00072
300 K | 0.00321 | 0.00289 | 0.00201 | 0.00143 | 0.00088
305 K | 0.00343 | 0.00311 | 0.0022 | 0.00163 | 0.00107
310 K | 0.00388 | 0.00325 | 0.00246 | 0.00184 | 0.00123
315 K | 0.00433 | 0.00346 | 0.00271 | 0.00197 | 0.00143
320 K | 0.0047 | 0.00369 | 0.00279 | 0.0021 | 0.00146
325 K | 0.00487 | 0.00386 | 0.00306 | 0.00237 | 0.00163
330 K | 0.00511 | 0.00413 | 0.00333 | 0.00259 | 0.00171
335 K | 0.00545 | 0.00437 | 0.00351 | 0.00275 | 0.00183
340 K | 0.00627 | 0.00458 | 0.00397 | 0.00291 | 0.00188
345 K | 0.00721 | 0.00495 | 0.00433 | 0.00317 | 0.00205
